Reference: paper PMC12606624 (Journal of Chemical Information and Modeling, 2025)

What was measured:
[1] = system: monomeric His-RAD51 [F86E, A89E]; experiment: Static light scattering (SLS) binding test, SEC columns in tandem
Method: Static light scattering (SLS) analyses were performed on a Viscotek GPCmax/TDA (Malvern, UK) instrument, connected in tandem with a series of two TSKgel G3000PWxl size-exclusion chromatography columns (Tosoh Bioscience) as already described in ref . For all the experiments, the system was equilibrated with buffer containing 20 mM Hepes pH 8.00, 100 mM Na2SO4, and 5% glycerol. […] Data analysis was performed using Viscotek software, calibrating the instrument with Bovine Serum Albumin at 5 mg/mL. Data were exported as .csv files and regraphed using GraphPad Prism 10.

His-RAD51 [F86E, A89E] = experiment: Biolayer interferometry (BLI), bioBRC4 immobilized on Streptavidin biosensors; type: binding; conditions: 460, 230 and 115 nM His-RAD51 [F86E, two replicates, pH 8.00, 25 °C, 180 s association, 180 s dissociation
Method: Biolayer interferometry (BLI) experiments were performed by utilizing an Octet K2 system (Sartorius). All BLI experiments were carried out in an assay buffer containing 20 mM Hepes, pH 8.00, 100 mM Na2SO4, 5% glycerol, 0.05% Tween 20, 0.1% PEG8000, and 0.5 mM Sodium Deoxycholate. The following protocol was applied: 60 s baseline, 240 s loading, 240 s baseline, 180 s association, 180 s dissociation. For every step, shaking at 1000 rpm was enabled, and the temperature was set at 25 °C. Streptavidin Octet biosensors (18-5019, Sartorius) were initially dipped into assay buffer to record an initial baseline for 60 s. BioBRC4 was solubilized in 100% DMSO at a 2 mM concentration, diluted at a final 1 μM concentration in assay buffer, and then immobilized to the Streptavidin sensor through a 240 s loading step. After the loading stage, a second baseline of 240 s was recorded in wells containing only assay buffer to verify the stability of the signal and remove unbound peptide. […] Data were analyzed using Octet Analysis Studio 12.2 by subtracting, from recorded sensorgrams, the signals of both the reference well and reference sensors to remove the signals due to nonspecific binding. The recorded sensorgrams were corrected by aligning to the average of the second baseline steps and applying Savitzky–Golay filtering and interstep correction based on the second baseline step. […]

[2] = system: monomeric RAD51 (His-RAD51[F86E, A89E]); experiment: Cross-linking with BS3 or EDAC, Coomassie blue SDS-PAGE and Western blot; type: binding; conditions: Coomassie blue-stained SDS-PAGE; BS3 1 mM, 1:1; EDAC 0.2% (w/v), 1:2
Method: For cross-linking with bis(sulfosuccinimidyl)-suberate (BS3), the purified His-RAD51[F86E, A89E] concentration was adjusted to 24 μM (=0.98 mg/mL). […] The mixture was incubated for 30 min at 20 °C on a thermoblock to allow for complex formation and then cross-linked with a final concentration of 1 mM BS3 (previously solubilized in PBS as a 50 mM stock). After 30 min at the same temperature, 4× Laemmli Sample Buffer (BioRad #1610747) was added to cross-linked samples and boiled at 95 °C for 5 min. […] The mixture was incubated for 1 h at 20 °C to allow for complex formation and then cross-linked with a final concentration of 0.2% (w/v) EDAC (previously solubilized in DMSO as a 10% w/v stock) for 1 h at the same temperature. 4× Laemmli Sample Buffer (BioRad #1610747) was then added to cross-linked samples and boiled at 95 °C for 5 min.
The efficiency of cross-linking reactions was evaluated through Coomassie blue staining and Western blot (WB) analysis. Prepared cross-linked samples were resolved using a 4–15% SDS-PAGE gel (Criterion TGX Precast Midi Protein Gel), which was stained using page blue protein staining solution (Thermo Fisher, 24620) according to manufacturer protocols. […] After three washes in TBS-T, chemiluminescence was detected using the Clarity Western ECL substrate (Biorad, #1705061), and images were recorded using a ChemiDoc MP Imaging System (Biorad). […]

binding to monomeric RAD51 (His-RAD51 [F86E, A89E]): showing the binding of monomeric His-
Substance: Bio-Ahx-KEPTLLGFHTASGKKVKIAKESLDKVKNLFDEKEQ-COOH [bioBRC4, modified version of BRC4 harboring a biotin at the N-ter]
binding to monomeric RAD51 ([1]; SLS and BLI (two orthogonal methods), SLS: RAD51 [F86E, A89E] 24 μM, 1 h at 25 °C, 4-fold excess peptide, 20 mM Hepes pH 8.00, 100 mM Na2SO4, 5% glycerol, 5% DMSO for BioBRC4): confirmed the binding of bioBRC4 to monomeric RAD51 | effect of biotin modification on binding to monomeric RAD51 ([1]; bioBRC4 vs BRC4, assessed from SLS and BLI (Figure S3)): did not negatively affect its binding to monomeric RAD51 | cross-linking to monomeric RAD51, BS3 versus EDAC [2]: BS3 cross-linked bioBRC4 to the monomeric RAD51 more effectively than EDAC
